The data set relates to HepaFH3 (proliferation-competent liver cells). To be noted: human, 100 μM. Here is the method:
HepG2 cells (ATCC HB-8065) are cultivated in the medium DMEM PAA (Pasching, Austria), to which is added 10% FCS Gold, 2 mM L-glutamine, 100 U/mL penicillin, and 0.1 mg/mL streptomycin. Primary human hepatocytes (pHHs) are commercially obtained from, e.g., TebuBio (Le Perray-en-Yvelines, France) or Promocell (Heidelberg, Germany). The cells are seeded onto 50 μg/mL collagen type I (rat tail, BD Biosciences, San Jose, USA) coated cell culture plates and cultivated at 37° C. under 5% CO2 in hepatocyte growth medium (Promocell GmbH, Heidelberg, Germany) or equivalent cell culture media of other manufacturers known to the person skilled in the art. These pHHs can be used for metabolite production immediately or after production of proliferation-competent liver cells. To accomplish this, proliferation genes are transduced into the cells using a lentiviral vector. This technique is described in WO2009/030217A2 (Braspenning et al. (2007)). […] The proliferating hepatocyte clones (cell lines) are characterized with respect to their liver cell markers. […] For definition of sequences to generate primers, the person skilled in the art can use databases such as the NCBI GenBank® (http://www.ncbi.nlm.nih.gov/genbank) or the European Nucleotide Archive (http://www.ebi.ac.uk/ena/). For phase I, the most relevant enzymes are those of the cytochrome P450 (CYP) family. […]

With `O=C(O)Cc1ccccc1Nc1c(Cl)cccc1Cl` [Diclofenac], the “Metabolite 4′-OH-diclofenac formed” value was 7.13 ± 2.22 pmol/(min*10^6 cells).

The record behind these values is US10036052B2, “Method for producing biogenic substances” (BRANDENBURGISCHE TECHNISCHE UNIVERSITÄT COTTBUS-SENFTENBERG, priority 2013, dated 2018).
